Laboratory results: patent US11434241B2, “Pyrimidine derivatives for prevention and treatment of bacterial infections” (UNIVERSITE DE LIEGE, priority 2018, dated 2022)
Values after ≈ are worked out from the molar mass of the structure shown. Like-named read-outs stand apart in the source and are kept apart here.

Legend:
[1] = test system: Staphylococcus epidermidis (ATCC 35984, also known as RP62A or MRSE); assay: MIC determination on S. epidermidis (EUCAST, OD600 after overnight growth in MHB); type: cell-based
Experimental: The Minimal Inhibitory Concentration (MIC) of molecules 2329, 2348, 2412, 2452 and 2461 was determined on Staphylococcus epidermidis (ATCC 35984, also known as RP62A) according to EUCAST (European Committee on Antimicrobial Susceptibility Testing) recommendations.
Briefly, a single colony grown on a Tryptic Soy Agar (TSA) plate was resuspended and cultured in Tryptic Soy Broth (TSB) overnight (O/N) in aerobic conditions (37° C. with 220 rpm shaking), next day a 1:50 inoculum in Mueller-Hinton broth (MHB) was incubated in aerobic conditions for 3 hr and an inoculum of 1:100 dilution, corresponding to 3×10^5 CFU/ml, was incubated in presence or absence of different concentrations of the molecules in 1% DMSO (vehicle). After O/N growth the OD of each culture was measured at 600 nm in a spectrophotometer (OD600). The MIC represents the concentration at which there is no visible growth of bacteria, i.e. ΔOD at 600 nm equal to zero (blank is the medium alone).
The Minimal Inhibitory Concentration (MIC) of pyrazolopyrimidine molecules 2539, 2544, 2666,2676, 2693, 2783, 2784 and 2782 and of purine molecules 2498, 2511, 2525, 2527, 2833, and 2840 was determined on S. epidermidis (ATCC 35984, also known as RP62A or MRSE) according to EUCAST (European Committee on Antimicrobial Susceptibility Testing) recommendations.
Briefly, a single colony grown on an agar plate was resuspended and cultured in Triptic Soy Broth (TSB) medium overnight (O/N) in aerobic conditions (37° C. with 220 rpm shaking), next day a 1:50 inoculum in Mueller-Hinton broth (MHB) was incubated in aerobic conditions for 3 hr (OD=0.08-0.1) and an inoculum of 1:300 dilution, corresponding to 3×10^5 CFU/ml, was incubated in presence or absence of different concentrations of each of the molecules in 1% DMSO (vehicle). After O/N growth the OD of each culture was measured at 600 nm (600) in a spectrophotometer (Victor 3-Perkin Elmer). The MIC represents the concentration at which there is no visible growth of bacteria, i.e. ΔOD at 600 nm equal to zero (where ΔOD is the difference between the OD with the molecule and the OD of the blank, the medium alone).
(§1) Molecule 36z has been tested for its potential antibacterial activity by determining its minimal inhibitory concentration (MIC) according to protocols recommended by EUCAST to assess the efficacy of antibiotics against bacterial strains. In brief MIC in MRSA (ATCC BAA-1556) or in Xen29 (Perkin Elmer-ATCC 12600) for 36z (molecule 25 in WO2009/034386) was determined by culturing a single colony of MRSA or Xen29 in brain heart infusion (BHI) broth overnight (O/N) in aerobic conditions (37° C. with 220 rpm shaking), while MIC for MRSE (ATCC 35984) was determined by culturing MRSE in TSB O/N. Next day a 1:100 inoculum in Mueller-Hinton broth (MHB) is incubated in aerobic conditions for 3 hr (OD=0.08-0.1) and an inoculum of 1:300 dilution, corresponding to 3×10^5 CFU/ml, is incubated in presence or absence of different concentrations of the tested molecules in 1% DMSO. After O/N growth the OD of each culture was measured at 600 nm (OD600) in a spectrophotometer (Victor 3-Perkin Elmer). The MIC represents the concentration at which there is no visible growth of bacteria, i.e. ΔOD at 600 nm equal to zero (blank is the medium alone). No antibacterial activity was found against MRSA (ATCC BAA-1556), Xen29 (Perkin Elmer-ATCC 12600 or MRSE (ATCC 35984) strains when the molecule was used at concentrations up to 200 μM.

[2] = test system: S. aureus Xen29 (ATCC 12600); assay: MIC determination on bioluminescent S. aureus Xen29; type: cell-based, Staphylococcus aureus; details: Staphylococcus aureus
Experimental: (§2) Further experiments are conducted using different strains of S. aureus, as clinically relevant Gram-positive bacterial strains: S. aureus ATCC 25904, methicillin-resistant S. aureus (MRSA) ATCC BAA-1556, Glycopeptide intermediate-resistant (GISA) S. aureus Mu-50 (ATCC 700695) in order to determine the Minimal Inhibitory Concentration (MIC) which is the minimal concentration required to prevent bacterial growth. The bioluminescent strain S. aureus Xen29 (ATCC 12600) was also used. This strain is derived from the parental strain S. aureus ATCC 12600, a pleural fluid isolate, which is also designated as NCTC8532.
(§3) A single colony selected from the different strains of S. aureus is resuspended and cultured in brain heart infusion (BHI) broth overnight (O/N) in aerobic conditions (37° C. with 220 rpm shaking), next day a 1:100 inoculum in Mueller-Hinton broth (MHB) is incubated in aerobic conditions for 3 hr (=OD0.08-0.1) and an inoculum of 1:300 dilution, corresponding to 3×10^5 CFU/ml, is incubated in presence or absence of different concentrations of the tested molecules in 1% DMSO. After O/N growth the OD of each culture was measured at 600 nm (OD600) in a spectrophotometer (Victor 3-Perkin Elmer). The MIC represents the concentration at which there is no visible growth of bacteria, i.e. ΔOD at 600 nm equal to zero (blank is the medium alone). […] The MIC of molecule 2329 against Glycopeptide intermediate-resistant (GISA) S. aureus Mu-50 (ATCC 700695) is in between 25 and 30 μM, while it is above 50 μM for molecules 2348, 2412, and 2452.
(§4) Further experiments are conducted using different strains of S. aureus, as clinically relevant Gram-positive bacterial strains: methicillin-resistant S. aureus (MRSA) ATCC BAA-1556 and S. aureus Xen29 (Perkin Elmer ATCC 12600).
(§5) To determine the MIC of the above mentioned molecules in MRSA or in Xen29, a single colony of MRSA or Xen29 is resuspended and cultured in brain heart infusion (BHI) broth overnight (O/N) in aerobic conditions (37° C. with 220 rpm shaking), next day a 1:100 inoculum in Mueller-Hinton broth (MHB) is incubated in aerobic conditions for 3 hr (OD=0.08-0.1) and an inoculum of 1:300 dilution, corresponding to 3×10^5 CFU/ml, is incubated in presence or absence of different concentrations of the tested molecules in 1% DMSO. After O/N growth the OD of each culture was measured at 600 nm (OD600) in a spectrophotometer (Victor 3-Perkin Elmer). The MIC represents the concentration at which there is no visible growth of bacteria, i.e. ΔOD at 600 nm equal to zero (blank is the medium alone).
as §1

[3] = test system: methicillin-resistant S. aureus (MRSA) ATCC BAA-1556; assay: MIC determination on methicillin-resistant S. aureus; type: cell-based, Staphylococcus aureus; details: for MIC: Staphylococcus aureus; for antibacterial activity against MRSA (in words): MHB medium
Experimental: as §2, §3, §4, §5, §1

[4] = test system: Murl isozyme from E. faecium; details: Table 9 of WO2009/034386; cited from earlier work
[5] = biological target: Murl isozyme from E. faecalis (Enterococcus faecalis, UniProt Q836J0); details: read-out: IC50 Murl isozyme from E. faecalis; Table 9 of WO2009/034386; cited from earlier work
S. aureus ATCC 25904 = assay: MIC determination on S. aureus ATCC 25904; type: cell-based; details: Staphylococcus aureus, ATCC25904, read-out: MIC S. aureus ATCC25904
Experimental: as §2, §3

[6] = test system: vancomycin-resistant (VRE) E. faecalis ATCC BAA-2365; assay: MIC determination on vancomycin-resistant E. faecalis; type: cell-based, Enterococcus faecalis; details: Mueller-Hinton broth (MHB)
Experimental: Further experiments were conducted using the clinically relevant Gram-positive bacterial strain of vancomycin-resistant (VRE) E. faecalis ATCC BAA-2365, in order to determine the Minimal Inhibitory Concentration (MIC) which is the minimal concentration required to prevent bacterial growth.
A single colony selected from E. faecalis VRE is resuspended and cultured in the brain heart infusion (BHI) broth overnight (O/N) in aerobic conditions (37° C. with 220 rpm shaking), next day a 1:100 inoculum in Mueller-Hinton broth (MHB) is incubated in aerobic conditions for 3 hr (OD=0.08-0.1) and an inoculum of 1:300 dilution, corresponding to 3×10^5 CFU/ml, is incubated in presence or absence of different concentrations of the tested molecules in 1% DMSO. After O/N growth the OD of each culture is measured at 600 nm (OD600) in a spectrophotometer (Victor 3-Perkin Elmer). The MIC represents the concentration at which there is no visible growth of bacteria, i.e. ΔOD at 600 nm equal to zero (blank is the medium alone).

MRSE = assay: Minimal Bactericidal Concentration (MBC) for MRSE; type: cell-based, Staphylococcus epidermidis
Experimental: We have determined the Minimal Bactericidal Concentration (MBC) of the pyrazolopyrimidine molecule 2666 for the MRSA strain and the MBC of the purine molecules 2329 and 2833 for MRSA and the MRSE strain respectively.
To determine the MBC, bacteria were grown as per MIC determination in presence of the pyrazolopyrimidine molecule 2666 for MRSA or in presence of the purine molecule 2833 for MRSE or 2329 for MRSA. At 24 hours bacteria were plated on TSB agar plates by the broth microdilution method, and colonies formed on the plates were counted next day.
The MBC represents the lowest concentration at which 99.9% bacteria of the initial inoculum are killed over 24 hours.

[7] = Staphylococcus epidermidis, read-out: MIC MRSE (comparison molecules of WO2009/034386)
[8] = ATCC12600, read-out: MIC Xen29 (comparison molecules of WO2009/034386)
[9] = read-out: MIC MRSA (comparison molecules of WO2009/034386)

Sequence of Murl isozyme from E. faecalis (Q836J0 whole entry): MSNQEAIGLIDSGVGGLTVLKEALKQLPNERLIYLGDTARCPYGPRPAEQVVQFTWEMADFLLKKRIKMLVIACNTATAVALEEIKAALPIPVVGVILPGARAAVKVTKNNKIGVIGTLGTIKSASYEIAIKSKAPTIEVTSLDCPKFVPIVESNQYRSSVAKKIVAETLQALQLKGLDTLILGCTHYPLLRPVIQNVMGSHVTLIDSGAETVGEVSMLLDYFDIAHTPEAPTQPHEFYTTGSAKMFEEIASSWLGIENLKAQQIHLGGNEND

CCCCOc1nc(NCc2cccnc2)c2ncn(Cc3c(F)ccc(Cl)c3F)c2n1 [37z″, 2-Butoxy-9-(3-chloro-2,6-difluorobenzyl)-N-(pyridin-3-ylmethyl)-9H-purin-6-amine, reference compound]
MIC [1, 7]: > 200 µM
MIC [2, 8]: > 200 µM
MIC [3, 9]: > 200 µM
IC50 [4]: 5 µM

CCCCSc1nc(N)c2ncn(Cc3c(F)ccc(Cl)c3F)c2n1 [Molecule 36z, 2-(Butylthio)-9-(3-chloro-2,6-difluorobenzyl)-9H-purin-6-amine, reference compound]
MIC [1, 7]: > 200 µM
MIC [2, 8]: > 200 µM
MIC [3, 9]: > 200 µM
IC50 [5]: 2000 nM
IC50 [4]: 5 µM

CCCSc1nc(N[C@@H]2C[C@H]2c2ccc(F)c(F)c2)c2ncn([C@@H]3C[C@H](O)[C@@H](O)[C@H]3O)c2n1 [Molecule 2461, (1S,2R,3S,4R)-4-(6-(((1R,2S)-2-(3,4-difluorophenyl)cyclopropyl)amino)-2-(propylthio)-9H-purin-9-yl)cyclopentane-1,2,3-triol]
MIC ([1]; Staphylococcus epidermidis, Mueller-Hinton broth (MHB), read-out: MIC S. epidermidis RP62): 20 µM (≈ 9.55 µg/mL)
MIC (S. aureus ATCC 25904): 20 to 25 µM (≈ 9.55 to 11.9 µg/mL)
MIC ([2]; ATCC12600, read-out: MIC S. aureus Xen29): 20 to 25 µM (≈ 9.55 to 11.9 µg/mL)
MIC ([3]; read-out: MIC S. aureus MRSA): 25 µM (≈ 11.9 µg/mL)
MIC [6]: 25 µM (≈ 11.9 µg/mL)

CCCn1ncc2c(N[C@@H]3C[C@H]3c3ccc(F)c(F)c3)nc(SC)nc21.Cl [Molecule 2693, N-((1R,2S)-2-(3,4-difluorophenyl)cyclopropyl)-6-(methylthio)-1-propyl-1H-pyrazolo[3,4-d]pyrimidin-4-amine hydrochloride]
MIC ([1]; MHB medium, tested up to 100 μM, hydrochloride, read-out: MIC MRSE): >100 µM
MIC ([1]; Staphylococcus epidermidis, read-out: MIC MRSE): > 100 µM
MIC ([2]; ATCC12600, read-out: MIC Xen29): > 100 µM
antibacterial activity against MRSA (in words) [3]: active
MIC ([3]; read-out: MIC MRSA): 20 µM

CCCCSc1nc(N[C@@H]2C[C@H]2c2ccc(F)c(F)c2)c2ncn(C)c2n1 [Molecule 2833, 2-(butylthio)-N-((1R,2S)-2-(3,4-difluorophenyl)cyclopropyl)-9-methyl-9H-purin-6-amine]
antibacterial activity / inhibition of MRSE growth (in words) ([1]; MHB medium): able to inhibit MRSE growth
MIC ([1]; Staphylococcus epidermidis, MHB medium, tested up to 100 μM, read-out: MIC MRSE): 30 µM (≈ 11.7 µg/mL)
antibacterial activity against MRSA (in words) [3]: active
MIC ([3]; read-out: MIC MRSA): 50 µM (≈ 19.5 µg/mL)
MBC relative to MIC, MRSE (MRSE): around 2 times
MBC (MRSE; Staphylococcus epidermidis, MRSE, 99.9% of initial inoculum killed over 24 hours): 50 µM (≈ 19.5 µg/mL)
